Data reported in patent US12257225B2, “Polyoxometalate complexes and pharmaceutical compositions” (Emory University, priority 2016, dated 2025).
“And” between values parts separate entries of the source, which are not always exact repeats. Equal values may be shown once. “Also recorded” adds a separate entry of the source.

Columns and labels:
[1] = tested on: normal proliferating cells; assay: Selective killing of cancer versus normal proliferating cells; type: cell-based; settings: for activity and selectivity, KB-3-1 versus normal cells: simple vanadium compounds
Experimental: (§1) A variety of cancer or normal cells were grown in 96-well plates and treated with VPOA-6 at 0-20 μM for 72 h. Cytotoxicity was measured using cell counting kit-8.
The effect of VPOA-6 on the viability of a spectrum of cancer cells and normal proliferating cells were then evaluated. […] In particular, four major types of human cancer cell lines, A549 (lung), U87 (brain), SKOV-3 (ovarian), and KB-3-1 (cervical), are highly sensitive to VPOA-6 with IC50 values below 5 μM.

[2] = pH 7.4
[3] = tested on: KB-CP.5, cisplatin-resistant cervical carcinoma cell; assay: Cytotoxicity, cell counting kit-8, KB-CP.5; type: cell-based, human
Experimental: as §1
(§2) The high incidence of drug resistance is a major challenge in treatment of relapsed and refractory cancers. […] The resistance of tumor cells to platinum-based chemotherapeutics is known to be associated with increased GSH levels; whereas cancer cells with high GSH levels are frequently more sensitive to drugs that affect GSH43.
(§3) Cell lines used in this study are as follows.

[4] = tested on: D556, medulloblastoma cell; assay: Cytotoxicity, cell counting kit-8, D556; type: cell-based; settings: D556 cells, 72 h
Experimental: as §1, §3

cancer cells [5] = assay: TUNEL and Annexin V-PE staining assays; type: cell-based; settings: normal proliferating cells remain alive
Experimental: (§4) One aspect of selectivity is the efficacy ratio of a therapeutic agent for normal cells versus cancer cells. In sharp contrast to cancer cells, human embryonic kidney HEK 293, human lung MRC-5, and human bronchus BEAS-2B normal cells are viable at VPOA-6 concentrations up to 20 μM. […] A fluorescent-labeling technique successfully images the uptake of VPOA-6 into living cells showing that cancer cells readily internalize this nanodrug within 8 hr even at very low concentrations (1 μM).

KB-CP.5 cancer cell = assay: ROS in drug-resistant KB-CP.5 cells; type: cell-based, human
[6] = tested on: SKOV-3, ovarian carcinoma cell; assay: Cytotoxicity, cell counting kit-8, SKOV-3; type: cell-based, human; settings: SKOV-3 cells, 72 h
Experimental: as §1, §3

[7] = tested on: KB-3-1 human cervical carcinoma; assay: KB-3-1 xenograft mouse model, antitumor efficacy; type: in vivo, mice; settings: for tumor inhibition effect: 16 μmol/kg i.p.
Text: In vivo antitumor effect of VPOA-6. Inhibition of human head-and-neck KB-3-1 tumor growth by VPOA-6 treatment in tumor-bearing mice. […] Mice were then euthanized, vital organs collected and processed for histological examination.
Human cervical cancer is one of the most aggressive forms of human cancer. […] Specifically when using i.p. administration, the tumor volume of VPOA-6-treated group at a dose of 40 μmol/kg was less than 40% of that control group at the end point. […] Evaluation of VPOA-6 side effects. A central issue in developing new chemotherapeutics is to minimize the side effects associated with the non-specific interaction of the drugs with normal organ tissues.

[8] = tested on: human embryonic kidney HEK 293; type: cell-based
Experimental: as §1
One aspect of selectivity is the efficacy ratio of a therapeutic agent for normal cells versus cancer cells.
as §3

KB-3-1 cells = assay: Total cellular ROS by flow cytometry, KB-3-1; type: cell-based, human
Text: Transition-metal-based polyoxoanions sometimes have the ability to catalyze a range of oxidation reactions and to generate the free radicals under mild conditions. Although it is not intended that embodiments of this disclosure be limited by any particular mechanism, it is quite reasonable that VPOA-6 may enhance the production or accumulation of reactive oxygen species (ROS) in cancer cells leading to oxidative stress and cell death. To test this hypothesis, the levels of total cellular ROS (H2O2) were measured using flow cytometry. […] To assess the functional importance of ROS induction in the VPOA-6-treated KB-3-1 cells, cells were co-treated with both VPOA-6 (5 and 10 μM) and a ROS scavenger N-acetyl-L-cysteine (NAC, 3 mM).

[9] = Catalysis of glutathione oxidation monitored by 1H NMR; type: biochemical
Experimental: GSH (10 mM) in deuterated PBS (1×, pH 7.4) solution at 37° C. in a cell culture incubator. The arrow on the top spectrum indicates the chemical shift of a dominant peak (absent here) in the oxidation product (GSSG).
Vanadium-containing compounds have extensive redox properties and consequently catalyze several organic substrate oxidations via free radical mechanisms. VPOA-6 is a highly efficient catalyst for oxidizing glutathione (GSH), the primary intracellular antioxidant, through both aerobic oxidation and peroxidation under physiologically relevant conditions. Glutathione is the most abundant cellular reducing metabolite with concentrations in the millimolar range and is regarded as the primary mechanism for protecting cells against oxidative stress during proliferation and growth. In order to evaluate the inherent catalytic capability of VPOA-6, proton nuclear magnetic resonance (1H NMR) spectroscopy was used to monitor the in vitro oxidation of GSH. Two reactions were designed for this purpose, GSH reacting with air (O2) and, separately, GSH reacting with peroxide (H2O2) in PBS buffer (1×pH 7.4) at 37° C.

KB-3-1 cancer cell line = assay: Cytotoxicity, cell counting kit-8, KB-3-1; type: cell-based, human; settings: KB-3-1 cells, 72 h
Experimental: as §1
The effective catalytic oxidation of cellular antioxidants by VPOA-6, led to an assessment of the viability of both cancer and normal cell lines in the presence of VPOA-6. Four VPOA analogues (FIG. 1B) for selectivity of VPOA-6 in killing cancer cells by cytotoxicity towards the fast-growing KB-3-1 cancer cell line.
as §3

[10] = Catalysis of ascorbic acid oxidation; type: biochemical; settings: air or peroxide, physiological conditions
[11] = Side effects in treated tumor-bearing mice; type: in vivo
Text: Mice were then euthanized, vital organs collected and processed for histological examination.

cancer cells [12] = assay: Uptake into living cells by fluorescent labeling; type: cell-based; settings: 1 μM
Experimental: as §4

[13] = tested on: OVCAR-3, ovarian carcinoma; assay: Cytotoxicity, cell counting kit-8, OVCAR-3; type: cell-based, human; settings: OVCAR-3 cells, 72 h
Experimental: as §1, §3

KB-3-1 cancer cells = assay: Apoptosis of KB-3-1 cancer cells; type: cell-based, human
Experimental: Apoptosis was measured after cancer cells were treated with the drug for 48 hr. […] Cancer cells were cultured with VPOA-6 (5 or 10 μM) with or without NAC (3 mM) for 48 hr before apoptosis measurement.

KB-CP.5 cancer cells = assay: Apoptosis of cisplatin-resistant KB-CP.5 cancer cells; type: cell-based, human
Experimental: Apoptosis was measured after cells treated with VPOA-6 at different concentrations for 48 hr. […] NAC rescues the VPOA-6-induced apoptosis in KB-CP.5 cancer cells. Cancer cells were cultured with VPOA-6 (5 or 10 μM) with or without ROS scavenging agent NAC (3 mM) for 48 hr before apoptosis measurement.

[14] = tested on: NCI-H460, large cell lung carcinoma; assay: Cytotoxicity, cell counting kit-8, NCI-H460; type: cell-based, human; settings: NCI-H460 cells, 72 h
Experimental: as §1, §3

[15] = tested on: KB-8-5, multi-drug resistant cervical carcinoma cell; assay: Cytotoxicity, cell counting kit-8, KB-8-5; type: cell-based, human; settings: KB-8-5 cells, 72 h
Experimental: as §1, §2, §3

cancer cells [16] = tested on: cancer cells

[O]=[V](=[O])[O][V](=[O])=[O] [V2O5]
activity and selectivity, KB-3-1 versus normal cells [1]: active but nonselective

[V6O13{(OCH2)3CNH3}2] [VPOA-6]
stability [2]: stable | IC50 ([3]; KB-CP.5 cells, 72 h): 5.53 µM | IC50 [4]: 7.36 ± 0.54 µM | apoptosis by TUNEL and Annexin V-PE staining (cancer cells [5]): dramatic apoptosis of the cancer cells | selective killing: cytotoxicity in cancer versus normal proliferating cells ([1]; 0-20 μM, 72 h): no cytotoxicity in normal proliferating cells; also recorded: induces cell death in cancer cells (Tumor) but not in normal proliferating cells (Normal) | ROS levels (KB-CP.5 cancer cell): dramatic ROS increase | IC50 [6]: 3.12 ± 0.05 µM | ROS and apoptosis in normal cells (normal cells): ROS increase but did not show obvious apoptosis | tumor inhibition effect ([7]; weekly for 24 days): clearly demonstrated the antitumor effect | tumor volume relative to control group at the end point ([7]; 40 μmol/kg i.p., weekly for 24 days): less than 40% | tumor growth inhibition, overall ([7]; i.p. or i.v., KB-3-1 xenografted mice): significantly inhibits growth; also recorded: quite effective | tumor inhibition ([7]; i.v. administration): more significant tumor inhibition | toxicity in cell viability studies [8]: much less so | ROS levels (KB-3-1 cells; KB-3-1, 5 and 10 μM, versus non-treated cells): significant surge in ROS levels | product of GSH oxidation ([9]; H2O2, PBS pH 7.4, 37° C., after 30 minutes): over-oxidized product, GS(═O)SG | time for conversion of GSH to GSSG ([9]; air, GSH 10 mM, PBS pH 7.4, 37° C.): ≤ 30 min | IC50 (KB-3-1 cancer cell line): 3.45 µM and < 5 µM | catalysis of ascorbic acid oxidation [10]: efficiently catalyzes ascorbic acid oxidation | nephrotoxicity ([11]; mouse, in vivo): not observed | time to internalization by cancer cells (cancer cells [12]): ≤ 8 h | IC50 [13]: 10.8 ± 0.49 µM | apoptosis (KB-3-1 cancer cells; KB-3-1, 48 hr): Dose-dependent apoptosis | apoptosis (KB-CP.5 cancer cells; KB-CP.5): remarkable apoptosis | IC50 [14]: 8.69 ± 0.91 µM | IC50 [15]: 3.7 µM

[V6O13{(OCH2)3CNO2}2] [VPOA-NO2]
IC50 (KB-3-1 cancer cell line): 13.7 ± 0.15 µM

[Na+].[O]=[V](=[O])[O-] [NaVO3]
activity and selectivity, KB-3-1 versus normal cells [1]: active but nonselective

CCCC[N+](CCCC)(CCCC)CCCC [TBA Cl, reference compound]
IC50 (KB-3-1 cancer cell line): 289 ± 12 µM

N.N.[Cl][Pt][Cl] [cisplatin, reference compound]
resistance of KB-CP.5 compared to parental KB-3-1 ([3]; KB-CP.5 versus KB-3-1): ca. 40 fold | IC50 [6]: 4.4 µM | tumor inhibition effect ([7]; weekly for 24 days): did not exhibit any tumor inhibition effect | IC50 (KB-3-1 cancer cell line): 2.8 µM | mortality ([11]; increased dosages): widespread death | health and body weight of treated mice ([11]; treatment period): deteriorated health and severe body weight loss

[Na+].[Na+].[Na+].[O]=[V]([O-])([O-])[O-] [Na3VO4]
activity and selectivity, KB-3-1 versus normal cells [1]: active but nonselective

[V6O13{(OCH2)3CCH3}2] [VPOA-CH3]
IC50 (KB-3-1 cancer cell line): 16.21 ± 0.08 µM

[V6O13{(OCH2)3CCH2OH}2] [VPOA-OH]
IC50 (KB-3-1 cancer cell line): 21 ± 1.47 µM

CC(=O)N[C@@H](CS)C(=O)O [NAC, N-acetyl-L-cysteine, reference compound]
effect of NAC on ROS and cell killing by VPOA-6 (KB-3-1 cells; KB-3-1, VPOA-6 5 and 10 μM, NAC 3 mM): reduces ROS and the cell killing by VPOA-6 | effect of NAC on VPOA-6-induced apoptosis (KB-3-1 cancer cells; KB-3-1, VPOA-6 5 or 10 μM, NAC 3 mM, 48 hr): rescues | effect of NAC on VPOA-6-induced apoptosis (KB-CP.5 cancer cells; KB-CP.5, VPOA-6 5 or 10 μM, NAC 3 mM, 48 hr): rescues

OO [hydrogen peroxide]
interaction with VPOA-6 in killing cancer cells (cancer cells [16]): acted synergistically with VPOA-6
